Assay results: patent US20220370416A1, “COMPOUNDS AND METHODS FOR TARGETED DEGRADATION OF KRAS” (Arvinas Operations, Inc., priority 2020, published 2022)

How the values were obtained:
[1] = molecular target: T1, HiBit-KRAS^G12C (Homo sapiens, UniProt P01116, G12C); assay: HiBit degradation assay in MiaPaCa-2 HiBit-KRas^G12C cells; assay type: cell-based; settings: 24 hours; for Dmax: maximum degradation
How it was run: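 DC50 and Dmax come from 4-parameter fits of DMSO-normalized HiBit luminescence after 24 hours' exposure at 37° C to 10 μM–20 nM compound in 0.1% or 0.5% DMSO. Cells: MiaPaCa-2 carrying one endogenously HiBit-tagged KRAS^G12C allele; concentrations causing ≥50% […] viability loss (alamar blue) excluded.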

[2] = molecular target: T1, HiBit-KRAS^G12C; assay: HiBit degradation assay in SW1573 HiBit-KRas^G12C cells; assay type: cell-based; parameters: expressed in transfected cells; host or cells: SW1573 (clone E6), modified pcDNA3.1 vector, TK promoter; settings: 24 hours; for Dmax: SW1573, SW1573 HiBit-KRas^G12C; for DC50: SW1573 HiBit-KRas^G12C
How it was run: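 HiBit-KRAS G12C degradation was measured after a 24 h compound exposure (titrated 10 μM–20 nM) in engineered SW1573 cells. Lytic HiBit luminescence, expressed relative to DMSO controls, yielded DC50 and Dmax from 4-parameter fits. Concentrations causing ≥50% loss in alamar blue viability were omitted as cytotoxic.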

[3] = MIA PaCa-2, MiaPaCa-2 HiBit-KRas^G12C cells, 0.5% DMSO, read-out: KRas^G12C-HiBiT (MiaPaCa; 0.5% DMSO) DMax
[4] = read-out: KRas^G12C-HiBiT (MiaPaCa; 0.5% DMSO) IC50, MiaPaCa-2 HiBit-KRas^G12C cells, 0.5% DMSO
[5] = 0.5% DMSO, read-out: KRas^G12C-HiBiT (SW1573; 0.5% DMSO) Dmax**
[6] = read-out: KRas^G12C-HiBiT (SW1573; 0.5% DMSO) IC50***, 0.5% DMSO
[7] = MIA PaCa-2, MiaPaCa-2 HiBit-KRas^G12C cells, 0.1% DMSO, read-out: KRas^G12C-HiBiT (MiaPaCa; 0.1% DMSO) DMax
[8] = 0.1% DMSO, read-out: KRas^G12C-HiBit (SW1573; 0.1% DMSO) Dmax**
[9] = 0.1% DMSO, read-out: KRas^G12C-HIBit (SW1573; 0.1% DMSO) DC50*
[10] = read-out: KRas^G12C-HiBiT (MiaPaCa; 0.1% DMSO) IC50, MiaPaCa-2 HiBit-KRas^G12C cells, 0.1% DMSO

T1 sequence (P01116 1-186 isoform P01116-2 G12C limits assumed): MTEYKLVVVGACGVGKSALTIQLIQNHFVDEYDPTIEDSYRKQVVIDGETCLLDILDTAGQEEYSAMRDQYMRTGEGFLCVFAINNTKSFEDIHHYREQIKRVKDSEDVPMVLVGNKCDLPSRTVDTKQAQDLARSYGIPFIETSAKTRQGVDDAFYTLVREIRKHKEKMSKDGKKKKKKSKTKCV

Row | SMILES | Dmax [1, 3] [%] | DC50 [1, 4] [nM] | Dmax [2, 5] [%] | DC50 [2, 6] [nM] | Dmax [1, 7] [%] | Dmax [2, 8] [%] | DC50 [2, 9] [nM] | DC50 [1, 10] [nM] | Dmax ([1]; MIA PaCa-2, read-out: KRas^G12C-HiBiT (MiaPaCa; 0.1% DMSO) DMax, MiaPaCa-2 HiBit-KRas^G12C cells, 0.1% DMSO) [%]
1 | C=CC(=O)N1CCN(c2nc(O[C@H](C)CN3CCC(OCCOCC(=O)N[C@H](C(=O)N4C[C@H](O)C[C@H]4C(=O)N[C@@H](C)c4ccc(-c5scnc5C)cc4)C(C)(C)C)CC3)nc3c(F)c(-c4cc(O)cc5ccccc45)c(Cl)cc23)C[C@H]1C [Compound 45, (2S,4R)-1-[(2S)-2-{2-[2-({1-[(2R)-2-{[6-chloro-8-fluoro-7-(3-hydroxynaphthalen-1-yl)-4-[(3R)-3-methyl-4-(prop-2-enoyl)piperazin-1-yl]quinazolin-2-yl]oxy}propyl]piperidin-4-yl}oxy)ethoxy]acetamido}-3,3-dimethylbutanoyl]-4-hydroxy-N-[(1S)-1-[4-(4-methyl-1,3-thiazol-5-yl)phenyl]ethyl]pyrrolidine-2-carboxamide] |  |  |  |  |  | < 35 | 100 to 1000 | > 1000 | 
2 | C=C(F)C(=O)N1CCN(c2nc(OCCN3CCC4(CC3)CN(c3cc([C@@H](C(=O)N5C[C@H](O)C[C@H]5C(=O)N[C@@H](C)c5ccc(-c6scnc6C)cc5)C(C)C)on3)C4)nc3c(F)c(-c4cc(O)cc5ccccc45)c(Cl)cc23)C[C@@H]1CC#N (atropisomer, axis not shown) [Compound 113, (2S,4R)-1-[(2S)-2-(3-{7-[2-({6-chloro-4-[(3S)-3-(cyanomethyl)-4-(2-fluoroprop-2-enoyl)piperazin-1-yl]-8-fluoro-7-(3-hydroxynaphthalen-1-yl)quinazolin-2-yl}oxy)ethyl]-2,7-diazaspiro[3.5]nonan-2-yl}-1,2-oxazol-5-yl)-3-methylbutanoyl]-4-hydroxy-N-[(1S)-1-[4-(4-methyl-1,3-thiazol-5-yl)phenyl]ethyl]pyrrolidine-2-carboxamide] |  | > 1000 |  | > 1000 |  |  |  |  | 
3 | C=C(F)C(=O)N1CCN(c2nc(OCCN3CCC(F)(COc4cc([C@@H](C(=O)N5C[C@H](O)C[C@H]5C(=O)N[C@@H](C)c5ccc(-c6scnc6C)cc5)C(C)C)on4)CC3)nc3c(F)c(-c4cc(O)cc5ccccc45)c(Cl)cc23)C[C@@H]1CC#N (atropisomer, axis not shown) [Compound 122, (2S,4R)-1-[(2S)-2-[3-({1-[2-({6-chloro-4-[(3S)-3-(cyanomethyl)-4-(2-fluoroprop-2-enoyl)piperazin-1-yl]-8-fluoro-7-(3-hydroxynaphthalen-1-yl)quinazolin-2-yl}oxy)ethyl]-4-fluoropiperidin-4-yl}methoxy)-1,2-oxazol-5-yl]-3-methylbutanoyl]-4-hydroxy-N-[(1S)-1-[4-(4-methyl-1,3-thiazol-5-yl)phenyl]ethyl]pyrrolidine-2-carboxamide] |  | > 1000 |  | > 1000 |  |  |  |  | 
4 | C=CC(=O)N1CCN(c2nc(N3CCN(C[C@H]4C[C@H](OCC(=O)N[C@H](C(=O)N5C[C@H](O)C[C@H]5C(=O)N[C@@H](C)c5ccc(-c6scnc6C)cc5)C(C)(C)C)C4)CC3)nc3c(F)c(-c4cc(O)cc5ccccc45)c(Cl)cc23)C[C@@H]1CC#N [Compound 114, (2S,4R)-1-[(2S)-3,3-dimethyl-2-{2-[(1r,3r)-3-[(4-{6-chloro-4-[(3S)-3-(cyanomethyl)-4-(prop-2-enoyl)piperazin-1-yl]-8-fluoro-7-(3-hydroxynaphthalen-1-yl)quinazolin-2-yl}piperazin-1-yl)methyl]cyclobutoxy]acetamido}butanoyl]-4-hydroxy-N-[(1S)-1-[4-(4-methyl-1,3-thiazol-5-yl)phenyl]ethyl]pyrrolidine-2-carboxamide] | < 35 | 100 to 1000 | 35 to 70 | 100 to 1000 |  |  |  |  | 
5 | C=CC(=O)N1CCN(c2nc(OCCN3CCC(OCCOc4cc([C@@H](C(=O)N5C[C@@H](O)C[C@H]5C(=O)N[C@@H](C)c5ccc(-c6scnc6C)cc5)C(C)C)on4)CC3)nc3c(F)c(-c4cc(O)cc5ccccc45)c(Cl)cc23)C[C@@H]1CC#N [Compound 5, (2S,4S)-1-[(2S)-2-{3-[2-({1-[2-({6-chloro-4-[(3S)-3-(cyanomethyl)-4-(prop-2-enoyl)piperazin-1-yl]-8-fluoro-7-(3-hydroxynaphthalen-1-yl)quinazolin-2-yl}oxy)ethyl]piperidin-4-yl}oxy)ethoxy]-1,2-oxazol-5-yl}-3-methylbutanoyl]-4-hydroxy-N-[(1S)-1-[4-(4-methyl-1,3-thiazol-5-yl)phenyl]ethyl]pyrrolidine-2-carboxamide] |  |  |  |  |  |  | > 1000 | 100 to 1000 | < 35

Further lines, with some results ahead:

Row | Dmax [1, 3] [%] | DC50 [1, 4] [nM] | Dmax [2, 5] [%] | DC50 [2, 6] [nM] | Dmax [1, 7] [%] | Dmax [2, 8] [%] | DC50 [2, 9] [nM] | SMILES | DC50 [1, 10] [nM] | Dmax ([1]; MIA PaCa-2, read-out: KRas^G12C-HiBiT (MiaPaCa; 0.1% DMSO) DMax, MiaPaCa-2 HiBit-KRas^G12C cells, 0.1% DMSO) [%]
6 | 35 to 70 | > 1000 | 35 to 70 | 100 to 1000 |  |  |  | C=CC(=O)N1CCN(c2nc(OCCN3CC[C@@H](COCC(=O)N[C@H](C(=O)N4C[C@H](O)C[C@H]4C(=O)N[C@@H](C)c4ccc(-c5scnc5C)cc4)C(C)(C)C)C3)nc3c(F)c(-c4cc(O)cc5ccccc45)c(Cl)cc23)C[C@@H]1CC#N [Compound 140, (2S,4R)-1-[(2S)-2-(2-{[(3R)-1-[2-({6-chloro-4-[(3S)-3-(cyanomethyl)-4-(prop-2-enoyl)piperazin-1-yl]-8-fluoro-7-(3-hydroxynaphthalen-1-yl)quinazolin-2-yl}oxy)ethyl]pyrrolidin-3-yl]methoxy}acetamido)-3,3-dimethylbutanoyl]-4-hydroxy-N-[(1S)-1-[4-(4-methyl-1,3-thiazol-5-yl)phenyl]ethyl]pyrrolidine-2-carboxamide] |  | 
7 | 35 to 70 |  | 35 to 70 |  | < 35 | 35 to 70 | 100 to 1000 | C=CC(=O)N1CCN(c2nc(OCCN3CCC(OCCOCC(=O)N[C@H](C(=O)N4C[C@H](O)C[C@H]4C(=O)N[C@@H](C)c4ccc(-c5scnc5C)cc4)C(C)(C)C)CC3)nc3c(F)c(-c4cc(O)cc5ccccc45)c(Cl)cc23)CC1 [Compound 66, (2S,4R)-1-[(2S)-2-[2-(2-{[1-(2-{[6-chloro-8-fluoro-7-(3-hydroxynaphthalen-1-yl)-4-[4-(prop-2-enoyl)piperazin-1-yl]quinazolin-2-yl]oxy}ethyl)piperidin-4-yl]oxy}ethoxy)acetamido]-3,3-dimethylbutanoyl]-4-hydroxy-N-[(1S)-1-[4-(4-methyl-1,3-thiazol-5-yl)phenyl]ethyl]pyrrolidine-2-carboxamide] |  | 
8 | 35 to 70 |  | 35 to 70 |  | < 35 | 35 to 70 | 100 to 1000 | C=CC(=O)N1CCN(c2nc(OCCN3CCC(CCOCC(=O)N[C@H](C(=O)N4C[C@H](O)C[C@H]4C(=O)N[C@@H](C)c4ccc(-c5scnc5C)cc4)C(C)(C)C)CC3)nc3c(F)c(-c4cc(O)cc5ccccc45)c(Cl)cc23)CC1 [Compound 64, (2S,4R)-1-[(2S)-2-(2-{2-[l-(2-{[6-chloro-8-fluoro-7-(3-hydroxynaphthalen-1-yl)-4-[4-(prop-2-enoyl)piperazin-1-yl]quinazolin-2-yl]oxy}ethyl)piperidin-4-yl]ethoxy}acetamido)-3,3-dimethylbutanoyl]-4-hydroxy-N-[(1S)-1-[4-(4-methyl-1,3-thiazol-5-yl)phenyl]ethyl]pyrrolidine-2-carboxamide] |  | 
9 | 35 to 70 | > 1000 | 35 to 70 | 100 to 1000 |  |  |  | C=CC(=O)N1CCN(c2nc(OCCN3CC[C@H](COCC(=O)N[C@H](C(=O)N4C[C@H](O)C[C@H]4C(=O)N[C@@H](C)c4ccc(-c5scnc5C)cc4)C(C)(C)C)C3)nc3c(F)c(-c4cc(O)cc5ccccc45)c(Cl)cc23)C[C@@H]1CC#N [Compound 142, (2S,4R)-1-[(2S)-2-(2-{[(3S)-1-[2-({6-chloro-4-[(3S)-3-(cyanomethyl)-4-(prop-2-enoyl)piperazin-1-yl]-8-fluoro-7-(3-hydroxynaphthalen-1-yl)quinazolin-2-yl}oxy)ethyl]pyrrolidin-3-yl]methoxy}acetamido)-3,3-dimethylbutanoyl]-4-hydroxy-N-[(1S)-1-[4-(4-methyl-1,3-thiazol-5-yl)phenyl]ethyl]pyrrolidine-2-carboxamide] |  | 
